Data: US20110206770A1, “ATOVAQUONE WITH A PARTICLE SIZE DIAMETER RANGE (D90) OF GREATER THAN 3 MICRONS TO ABOUT 10 MICRONS” (Alphapharm Pty. Ltd., priority 2008, published 2011)

Test: D90 particle size of atovaquone by Malvern Mastersizer
Type: physicochemical
Method: […]

[1] = Run 1, stir time 1 min, 30 mg in 900 mL purified water, polysorbate 80, 10 min sonication, 400 rpm

Compound `O=C1C(O)=C([C@H]2CC[C@H](c3ccc(Cl)cc3)CC2)C(=O)c2ccccc21` [Example 1, trans-2-[4-(4-chlorophenyl)cyclohexyl]-3-hydroxy-1,4-naphthalenedione] has a D90 particle size [1] of 5.088 microns, a D90 particle size (Run 1, stir time 2 min) of 5.089 microns and a D90 particle size (Run 1, stir time 3 min) of 5.090 microns. The D90 particle size (Run 1, stir time 4 min) was 5.088 microns, the D90 particle size (Run 1, stir time 5 min) was 5.088 microns and the D90 particle size (Run 2, stir time 1 min) was 5.182 microns. It also gave a D90 particle size (Run 2, stir time 2 min) of 5.183 microns, a D90 particle size (Run 2, stir time 3 min) of 5.182 microns and a D90 particle size (Run 2, stir time 4 min) of 5.183 microns. For the same compound, the D90 particle size (Run 2, stir time 5 min) was 5.184 microns, the D90 particle size (Run 3, stir time 1 min) was 5.049 microns and the D90 particle size (Run 3, stir time 2 min) was 5.049 microns. It also gave a D90 particle size (Run 3, stir time 3 min) of 5.048 microns, a D90 particle size (Run 3, stir time 4 min) of 5.047 microns and a D90 particle size (Run 3, stir time 5 min) of 5.048 microns. The D90 particle size (Run 4, stir time 1 min) was 5.283 microns, the D90 particle size (Run 4, stir time 2 min) was 5.282 microns and the D90 particle size (Run 4, stir time 3 min) was 5.283 microns. It also gave a D90 particle size (Run 4, stir time 4 min) of 5.284 microns and a D90 particle size (Run 4, stir time 5 min) of 5.281 microns.

In the case of `O=C1C(O)=C([C@H]2CC[C@H](c3ccc(Cl)cc3)CC2)C(=O)c2ccccc21` [Example 2, trans-2-[4-(4-chlorophenyl)cyclohexyl]-3-hydroxy-1,4-naphthalenedione], the D90 particle size [1] is reported as 6.177 microns, the D90 particle size (Run 1, stir time 2 min) is reported as 6.176 microns and the D90 particle size (Run 1, stir time 3 min) is reported as 6.175 microns. The D90 particle size (Run 1, stir time 4 min) was 6.176 microns, the D90 particle size (Run 1, stir time 5 min) was 6.176 microns and the D90 particle size (Run 2, stir time 1 min) was 6.258 microns. The D90 particle size (Run 2, stir time 2 min) was 6.257 microns, the D90 particle size (Run 2, stir time 3 min) was 6.258 microns and the D90 particle size (Run 2, stir time 4 min) was 6.260 microns. The D90 particle size (Run 2, stir time 5 min) was 6.259 microns, the D90 particle size (Run 3, stir time 1 min) was 6.338 microns and the D90 particle size (Run 3, stir time 2 min) was 6.339 microns. For the same compound, the D90 particle size (Run 3, stir time 3 min) was 6.336 microns, the D90 particle size (Run 3, stir time 4 min) was 6.339 microns and the D90 particle size (Run 3, stir time 5 min) was 6.337 microns. For the same compound, the D90 particle size (Run 4, stir time 1 min) was 6.572 microns, the D90 particle size (Run 4, stir time 2 min) was 6.572 microns and the D90 particle size (Run 4, stir time 3 min) was 6.572 microns. For the same compound, the D90 particle size (Run 4, stir time 4 min) was 6.569 microns and the D90 particle size (Run 4, stir time 5 min) was 6.571 microns.

With `O=C1C(O)=C([C@H]2CC[C@H](c3ccc(Cl)cc3)CC2)C(=O)c2ccccc21` [Example 3, trans-2-[4-(4-chlorophenyl)cyclohexyl]-3-hydroxy-1,4-naphthalenedione] the D90 particle size [1] was 4.280 microns, the D90 particle size (Run 1, stir time 2 min) was 4.280 microns and the D90 particle size (Run 1, stir time 3 min) was 4.280 microns. It also gave a D90 particle size (Run 1, stir time 4 min) of 4.280 microns, a D90 particle size (Run 1, stir time 5 min) of 4.280 microns and a D90 particle size (Run 2, stir time 1 min) of 4.260 microns. It also gave a D90 particle size (Run 2, stir time 2 min) of 4.260 microns, a D90 particle size (Run 2, stir time 3 min) of 4.261 microns and a D90 particle size (Run 2, stir time 4 min) of 4.261 microns. It also gave a D90 particle size (Run 2, stir time 5 min) of 4.260 microns, a D90 particle size (Run 3, stir time 1 min) of 4.124 microns and a D90 particle size (Run 3, stir time 2 min) of 4.124 microns. The D90 particle size (Run 3, stir time 3 min) was 4.123 microns, the D90 particle size (Run 3, stir time 4 min) was 4.123 microns and the D90 particle size (Run 3, stir time 5 min) was 4.125 microns. For the same compound, the D90 particle size (Run 4, stir time 1 min) was 4.285 microns, the D90 particle size (Run 4, stir time 2 min) was 4.285 microns and the D90 particle size (Run 4, stir time 3 min) was 4.286 microns. For the same compound, the D90 particle size (Run 4, stir time 4 min) was 4.286 microns and the D90 particle size (Run 4, stir time 5 min) was 4.286 microns.

Work on `O=C1C(O)=C([C@H]2CC[C@H](c3ccc(Cl)cc3)CC2)C(=O)c2ccccc21` [Example 4, trans-2-[4-(4-chlorophenyl)cyclohexyl]-3-hydroxy-1,4-naphthalenedione] yielded a D90 particle size [1] of 4.651 microns, a D90 particle size (Run 1, stir time 2 min) of 4.652 microns and a D90 particle size (Run 1, stir time 3 min) of 4.652 microns. It also gave a D90 particle size (Run 1, stir time 4 min) of 4.653 microns, a D90 particle size (Run 1, stir time 5 min) of 4.651 microns and a D90 particle size (Run 2, stir time 1 min) of 4.628 microns. It also gave a D90 particle size (Run 2, stir time 2 min) of 4.628 microns, a D90 particle size (Run 2, stir time 3 min) of 4.629 microns and a D90 particle size (Run 2, stir time 4 min) of 4.631 microns. It also gave a D90 particle size (Run 2, stir time 5 min) of 4.630 microns, a D90 particle size (Run 3, stir time 1 min) of 4.836 microns and a D90 particle size (Run 3, stir time 2 min) of 4.836 microns. The D90 particle size (Run 3, stir time 3 min) was 4.837 microns, the D90 particle size (Run 3, stir time 4 min) was 4.836 microns and the D90 particle size (Run 3, stir time 5 min) was 4.984 microns. It also gave a D90 particle size (Run 4, stir time 1 min) of 4.814 microns, a D90 particle size (Run 4, stir time 2 min) of 4.814 microns and a D90 particle size (Run 4, stir time 3 min) of 4.815 microns. For the same compound, the D90 particle size (Run 4, stir time 4 min) was 4.814 microns and the D90 particle size (Run 4, stir time 5 min) was 4.814 microns.

With `O=C1C(O)=C([C@H]2CC[C@H](c3ccc(Cl)cc3)CC2)C(=O)c2ccccc21` [Example 5, trans-2-[4-(4-chlorophenyl)cyclohexyl]-3-hydroxy-1,4-naphthalenedione] the D90 particle size [1] was 7.971 microns, the D90 particle size (Run 1, stir time 2 min) was 7.949 microns and the D90 particle size (Run 1, stir time 3 min) was 8.215 microns. For the same compound, the D90 particle size (Run 1, stir time 4 min) was 8.276 microns, the D90 particle size (Run 1, stir time 5 min) was 7.948 microns and the D90 particle size (Run 2, stir time 1 min) was 7.726 microns. The D90 particle size (Run 2, stir time 2 min) was 7.723 microns, the D90 particle size (Run 2, stir time 3 min) was 7.726 microns and the D90 particle size (Run 2, stir time 4 min) was 7.727 microns. It also gave a D90 particle size (Run 2, stir time 5 min) of 7.723 microns, a D90 particle size (Run 3, stir time 1 min) of 7.978 microns and a D90 particle size (Run 3, stir time 2 min) of 7.974 microns. It also gave a D90 particle size (Run 3, stir time 3 min) of 7.977 microns, a D90 particle size (Run 3, stir time 4 min) of 7.979 microns and a D90 particle size (Run 3, stir time 5 min) of 7.973 microns.
